Experimental data as given in patent US8247211B2, “Glycopeptide antibiotics” (American Cyanamid Company, priority 2001, dated 2012).
≈ marks a conversion by molar mass, not a printed value.

Assays:
Enterococcus sp. = assay: In vitro antibacterial evaluation: minimum inhibitory concentration (MIC), broth dilution method; assay type: cell-based; conditions: broth dilution, 5×10^5 CFU/mL, 18 hours at 35° C.
Summary of the method: (§1)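 Following NCCLS approved standard M7-A2, compounds are serially diluted from 64 to 0.06 μg/mL in Muller-Hinton II […] and inoculated at 5×10^5 CFU/mL; the MIC is the minimum concentration at which growth is inhibited.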

Escherichia coli = assay: as above; assay type: cell-based; conditions: 5×10^5 CFU/mL, 18 hours at 35° C.
Summary of the method: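 NCCLS M7-A2 broth dilution; Muller-Hinton II […]; 5×10^5 CFU/mL; 64-0.06 μg/mL. MIC = lowest concentration with no growth.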

Staphylococcus sp. = assay: as above; assay type: cell-based; conditions: for MIC Staphylococcus aureus (ATCC 29213): strain ATCC 29213; for MIC Staphylococcus aureus (GC 1131): strain GC 1131; for MIC Staphylococcus aureus (GC 3051): strain GC 3051; for MIC Staphylococcus aureus (GC 3053): strain GC 3053; for MIC Staphylococcus aureus (GC 4541): strain GC 4541; for MIC Staphylococcus aureus (GC 4542): strain GC 4542; for MIC Staphylococcus aureus-SMITH (GC 4543): strain GC 4543; for MIC Staphylococcus aureus (GC 4544): strain GC 4544; for MIC Staphylococcus aureus (GC 4545): strain GC 4545; for MIC Staphylococcus haemolyticus (GC 4546): strain GC 4546; for MIC Coagulase Negative Staphylococcus (GC 4547): strain GC 4547; for MIC Coagulase Negative Staphylococcus (GC 4548): strain GC 4548; for MIC Coagulase Negative Staphylococcus (GC 4549): strain GC 4549; for MIC Coagulase Negative Staphylococcus (GC 4551): strain GC 4551; for MIC Coagulase Negative Staphylococcus (GC 6257): strain GC 6257
Summary of the method: as §1

Streptococcus sp. = assay: as above; assay type: cell-based; conditions: broth dilution, 5×10^5 CFU/mL, 18 hours at 35° C.
Summary of the method: as §1

[1] = test system: Enterococcus faecalis (GC 6189), vancomycin resistant strain; assay: Acute lethal infection in mice (ED50); assay type: in vivo; conditions: female CD-1 mice, intraperitoneal challenge, intravenous dose 30 min. after infection, 7 day survival ratios
Summary of the method: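 Lethal systemic infection model: female CD-1 mice, 20 ± 1-2 g, intraperitoneal challenge. Single intravenous treatment 30 min after infection; 7-day survival, pooled from 3 tests, gives ED50.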

[2] = broth dilution, 18 hours at 35° C.

SMILES: CCC(CC)C1OCC2OC(OC3C(CO)OC(Oc4ccc(CC5NC(=O)C(C(C)c6ccccc6)NC(=O)CNC(=O)C(CO)NC(=O)C(C(O)C6CNC(=N)N6C6OC(CO)C(O)C(O)C6O)NC(=O)C(C(O)C6CNC(=N)N6)NC5=O)cc4)C(O)C3O)C(O)C(O)C2O1 (stereo not drawn) [Example 116, Cyclo[glycyl-β-methylphenylalanyl-O-[4-O-[4,6-O-(2-ethylbutylidene)hexopyranosyl]-hexopyranosyl]tyrosyl-3-(2-iminoimidazolidin-4-yl)seryl-3-(3-hexopyranosyl-2-iminoimidazolidin-4-yl)serylseryl]]
- MIC Enterococccus avium (GC 4558) (Enterococcus sp.): 2 µg/mL (≈ 1.45 µM)
- MIC Enterococccus faecalis (ATCC 29212) (Enterococcus sp.): 2 µg/mL (≈ 1.45 µM)
- MIC Enterococccus faecalis (GC 2691) (Enterococcus sp.): 2 µg/mL (≈ 1.45 µM)
- MIC Enterococccus faecalis (GC 3059) (Enterococcus sp.): 2 µg/mL (≈ 1.45 µM)
- MIC Enterococccus faecalis (GC 4552) (Enterococcus sp.): 2 µg/mL (≈ 1.45 µM)
- MIC Enterococccus faecalis (GC 4553) (Enterococcus sp.): 2 µg/mL (≈ 1.45 µM)
- MIC Enterococccus faecalis (GC 4554) (Enterococcus sp.): 2 µg/mL (≈ 1.45 µM)
- MIC Enterococccus faecalis (GC 6189) (Enterococcus sp.): 2 µg/mL (≈ 1.45 µM)
- MIC Enterococccus faecium (GC 2243) (Enterococcus sp.): 2 µg/mL (≈ 1.45 µM)
- MIC Enterococccus faecium (GC 4556) (Enterococcus sp.): 2 µg/mL (≈ 1.45 µM)
- MIC Enterococccus faecium (GC 4557) (Enterococcus sp.): 2 µg/mL (≈ 1.45 µM)
- MIC Enterococcus faecalis (GC 2242) (Enterococcus sp.): 2 µg/mL (≈ 1.45 µM)
- MIC Escherichia coli (ATCC 25922) (Escherichia coli): 32 µg/mL (≈ 23.2 µM)
- MIC Escherichia coli (GC 4559) (Escherichia coli): 64 µg/mL (≈ 46.5 µM)
- MIC Escherichia coli (GC 4560) (Escherichia coli): 1 µg/mL (≈ 0.726 µM)
- MIC Staphylococcus aureus (ATCC 29213) (Staphylococcus sp.): 1 µg/mL (≈ 0.726 µM)
- MIC Staphylococcus aureus (ATCC 29213) (Staphylococcus sp.; [2]): 1 µg/mL (≈ 0.726 µM)
- MIC Staphylococcus aureus (GC 1131) (Staphylococcus sp.): 1 µg/mL (≈ 0.726 µM)
- MIC Staphylococcus aureus (GC 1131) (Staphylococcus sp.; [2]): 1 µg/mL (≈ 0.726 µM)
- MIC Staphylococcus aureus (GC 3051) (Staphylococcus sp.): 1 µg/mL (≈ 0.726 µM)
- MIC Staphylococcus aureus (GC 3051) (Staphylococcus sp.; [2]): 1 µg/mL (≈ 0.726 µM)
- MIC Staphylococcus aureus (GC 3053) (Staphylococcus sp.): 1 µg/mL (≈ 0.726 µM)
- MIC Staphylococcus aureus (GC 3053) (Staphylococcus sp.; [2]): 1 µg/mL (≈ 0.726 µM)
- MIC Staphylococcus aureus (GC 4541) (Staphylococcus sp.): 1 µg/mL (≈ 0.726 µM)
- MIC Staphylococcus aureus (GC 4541) (Staphylococcus sp.; [2]): 1 µg/mL (≈ 0.726 µM)
- MIC Staphylococcus aureus (GC 4542) (Staphylococcus sp.): 0.5 µg/mL (≈ 0.363 µM)
- MIC Staphylococcus aureus (GC 4542) (Staphylococcus sp.; [2]): 0.5 µg/mL (≈ 0.363 µM)
- MIC Staphylococcus aureus-SMITH (GC 4543) (Staphylococcus sp.; 18 hours at 35° C.): 1 µg/mL (≈ 0.726 µM)
- MIC Staphylococcus aureus-SMITH (GC 4543) (Staphylococcus sp.; [2]): 1 µg/mL (≈ 0.726 µM)
- MIC Staphylococcus aureus (GC 4544) (Staphylococcus sp.): 1 µg/mL (≈ 0.726 µM)
- MIC Staphylococcus aureus (GC 4544) (Staphylococcus sp.; [2]): 1 µg/mL (≈ 0.726 µM)
- MIC Staphylococcus aureus (GC 4545) (Staphylococcus sp.): 1 µg/mL (≈ 0.726 µM)
- MIC Staphylococcus aureus (GC 4545) (Staphylococcus sp.; [2]): 1 µg/mL (≈ 0.726 µM)
- MIC Staphylococcus haemolyticus (GC 4546) (Staphylococcus sp.): 0.5 µg/mL (≈ 0.363 µM)
- MIC Staphylococcus haemolyticus (GC 4546) (Staphylococcus sp.; [2]): 0.5 µg/mL (≈ 0.363 µM)
- MIC Coagulase Negative Staphylococcus (GC 4547) (Staphylococcus sp.): 1 µg/mL (≈ 0.726 µM)
- MIC Coagulase Negative Staphylococcus (GC 4547) (Staphylococcus sp.; [2]): 1 µg/mL (≈ 0.726 µM)
- MIC Coagulase Negative Staphylococcus (GC 4548) (Staphylococcus sp.): 1 µg/mL (≈ 0.726 µM)
- MIC Coagulase Negative Staphylococcus (GC 4548) (Staphylococcus sp.; [2]): 1 µg/mL (≈ 0.726 µM)
- MIC Coagulase Negative Staphylococcus (GC 4549) (Staphylococcus sp.): 1 µg/mL (≈ 0.726 µM)
- MIC Coagulase Negative Staphylococcus (GC 4549) (Staphylococcus sp.; [2]): 1 µg/mL (≈ 0.726 µM)
- MIC Coagulase Negative Staphylococcus (GC 4551) (Staphylococcus sp.): 1 µg/mL (≈ 0.726 µM)
- MIC Coagulase Negative Staphylococcus (GC 4551) (Staphylococcus sp.; [2]): 1 µg/mL (≈ 0.726 µM)
- MIC Coagulase Negative Staphylococcus (GC 6257) (Staphylococcus sp.): 0.5 µg/mL (≈ 0.363 µM)
- MIC Coagulase Negative Staphylococcus (GC 6257) (Staphylococcus sp.; [2]): 0.5 µg/mL (≈ 0.363 µM)
- MIC Streptococcus agalactiae (GC 4564) (Streptococcus sp.): 0.25 µg/mL (≈ 0.181 µM)
- MIC Streptococcus pneumoniae (GC 1894) (Streptococcus sp.): <0.06 µg/mL
- MIC Streptococcus pneumoniae (GC 4565) (Streptococcus sp.): <0.06 µg/mL
- MIC Streptococcus pneumonine (ATCC 6301) (Streptococcus sp.): <0.06 µg/mL
- MIC Streptococcus pyogenes (GC 4563) (Streptococcus sp.): 0.25 µg/mL (≈ 0.181 µM)
- median effective dose (ED50), Enterococcus faecalis (GC 6189) [1]: 0.46 mg/kg
